In patent EP2739618B1, “QUINAZOLINE COMPOUNDS AS SERINE/THREONINE KINASE INHIBITORS” (Array Biopharma, Inc., priority 2011, dated 2013) one finds IC50 data, which are given here for 37 compounds.

T1 sequence (P28482 8-360): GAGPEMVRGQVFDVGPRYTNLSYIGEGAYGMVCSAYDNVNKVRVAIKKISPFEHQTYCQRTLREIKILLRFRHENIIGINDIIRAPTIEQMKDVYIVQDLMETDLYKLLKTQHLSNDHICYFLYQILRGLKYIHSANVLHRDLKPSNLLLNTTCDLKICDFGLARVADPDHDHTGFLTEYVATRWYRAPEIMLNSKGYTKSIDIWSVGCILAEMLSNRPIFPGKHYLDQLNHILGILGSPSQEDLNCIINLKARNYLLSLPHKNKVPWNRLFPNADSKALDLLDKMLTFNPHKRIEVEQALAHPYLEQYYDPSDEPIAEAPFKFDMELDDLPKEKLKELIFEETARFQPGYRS

The first assay addresses T1, human ERK-2 (Mitogen Activated Kinase 1) (Homo sapiens, UniProt P28482).
T1 construct: N-terminal 6-His fusion protein in E. coli and corresponding to aa 8-360; 6-His (N); made in house; host or cells: E. coli
Description: ERK-2 Enzymatic Assay. As to conditions: TABLE I; 5nM ERK-2 enzyme, 25µM ATP, S/T17 peptide substrate; single assay or mean of multiple assays. The assay is classed as biochemical. The protocol:
Compounds were tested in an enzymatic assay using human ERK-2 (Mitogen Activated Kinase 1), recombinantly expressed as an N-terminal 6-His fusion protein in E. coli and corresponding to aa 8-360. The substrate used was the fluorescent Omnia peptide S/T17 (Invitrogen of Carlsbad, CA; Cat. KNZ1171C). Test compounds were diluted in DMSO in 3-fold serial dilutions at 100x final concentrations. […] The assay was run at ambient temperature in a white 384-well polypropylene plate (Nunc, Inc of Naperville, IL; Cat. 267462) collecting data every 50 seconds for approximately 30 minutes on an Envision plate reader (PerkinElmer, Inc. of Waltham, MA); Excitation 340 nm/Emission 495 nm. The data collected from each well was fit to a straight line and the resulting rates were used to calculate percent of control. Percent of control was plotted against compound concentration and IC50 values were determined using a four-parameter fit. Representative data is in TABLE I and TABLE II. The reported IC50 may be from a single assay or the mean of multiple assays.
For the compound `O=C(N[C@H](c1ccc(F)c(Cl)c1)[C@]1(F)CCNC1)c1ccc2cnc(NC3CCOCC3)nc2c1` [Compound I-38], the midpoint of inhibition, the IC50, lay at 65.4 nM.

In the case of `Cn1cc([C@@H](NC(=O)c2ccc3cnc(N[C@H]4CCO[C@H](CO)C4)nc3c2)c2ccc(Cl)c(F)c2)cn1` [Compound I-42, 2-((2S,4S)-2-hydroxymethyl-tetrahydro-pyran-4-ylamino)-quinazoline-7-carboxylic acid [(S)-(4-chloro-3-fluoro-phenyl)-(1-methyl-1H-pyrazol-4-yl)-methyl]-amide], half-maximal inhibition (IC50) was put at 7.2 nM.

For the compound `COc1ccc([C@H](NC(=O)c2ccc3cnc(NC4CCOCC4)nc3c2)c2cnn(C)c2)cc1Cl` [Compound I-44, 2-(tetrahydro-pyran-4-ylamino)-quinazoline-7-carboxylic acid [(S)-(3-chloro-4-methoxy-phenyl)-(1-methyl-1H-pyrazol-4-yl)-methyl]-amide], it took 1 nM to reach half-maximal inhibition (IC50).

Take `COc1ccc([C@H](NC(=O)c2ccc3cnc(N[C@H]4CCO[C@H](CO)C4)nc3c2)c2cnn(C)c2)cc1F` [Compound I-46, N-((S)-(3-fluoro-4-methoxyphenyl)(1-methyl-1H-pyrazol-4-yl)methyl)-2-((2S,4S)-2-(hydroxymethyl)tetrahydro-2H-pyran-4-ylamino)quinazoline-7-carboxamide]: the IC50 (in general, the concentration needed to halve the response being measured) was determined as 4.2 nM.

Compound `COc1ccc([C@@H](NC(=O)c2ccc3cnc(NC4CCOCC4)nc3c2)c2cnn(C)c2)cc1C#N` [Compound I-49, (R)-N-((3-cyano-4-methoxyphenyl)(1-methyl-1H-pyrazol-4-yl)methyl)-2-(tetrahydro-2H-pyran-4-ylamino)quinazoline-7-carboxamide] displayed an IC50 of 141 nM.

`COc1ccc([C@H](NC(=O)c2cc(F)c3cnc(NC4CCOCC4)nc3c2)c2cnn(C)n2)cc1F` [Compound I-51, (S)-5-Fluoro-N-((3-fluoro-4-methoxyphenyl)(2-methyl-2H-1,2,3-triazol-4-yl)methyl)-2-(tetrahydro-2H-pyran-4-ylamino)quinazoline-7-carboxamide]: 2.8 nM corresponded to half-maximal inhibition (IC50).

As to `COc1ccc([C@H](NC(=O)c2cc(F)c3cnc(N[C@H]4CCOC[C@H]4F)nc3c2)c2cnn(C)c2)cc1F` [Compound I-52, 5-fluoro-N-((S)-(3-fluoro-4-methoxyphenyl)(1-methyl-1H-pyrazol-4-yl)methyl)-2-((3S,4S)-3-fluorotetrahydro-2H-pyran-4-ylamino)quinazoline-7-carboxamide], the IC50 is 2.6 nM.

In turn, `COc1ccc(C(NC(=O)c2cc(F)c3cnc(NC4CCOCC4)nc3c2)c2cnn(C)n2)cc1F` (stereo not shown) [Compound I-53, 5-Fluoro-2-(tetrahydro-pyran-4-ylamino)-quinazoline-7-carboxylic acid [(3-fluoro-4-methoxy-phenyl)-(2-methyl-2H-[1,2,3]triazol-4-yl)-methyl]-amide] displayed an IC50 of 6.8 nM.

Take `COc1ccc([C@@H](NC(=O)c2cc(F)c3cnc(NC4CCOCC4)nc3c2)c2cnn(C)n2)cc1F` [Compound I-54, 5-Fluoro-2-(tetrahydro-pyran-4-ylamino)-quinazoline-7-carboxylic acid [(R)-(3-fluoro-4-methoxy-phenyl)-(2-methyl-2H-[1,2,3]triazol-4-yl)-methyl]-amide]: the IC50 worked out at 31 nM.

The compound `Cn1cc([C@@H](NC(=O)c2ccc3cnc(NC4CCOCC4)nc3c2)c2ccc(F)c(Cl)c2)cn1` [Compound I-55, 2-(Tetrahydro-pyran-4-ylamino)-quinazoline-7-carboxylic acid [(S)-(3-chloro-4-fluoro-phenyl)-(1-methyl-1H-pyrazol-4-yl)-methyl]-amide] gave an IC50 of 2.7 nM.

Consider `COc1ccc([C@H](NC(=O)c2ccc3cnc(NC4CCOCC4)nc3c2)c2cnn(C)c2)cc1C#N` [Compound I-56, 2-(Tetrahydro-pyran-4-ylamino)-quinazoline-7-carboxylic acid [(3-cyano-4-methoxy-phenyl)-(1-methyl-1H-pyrazol-4-yl)-methyl]-amide], for which the IC50 was 3.5 nM.

For the compound `COc1ccc([C@H](NC(=O)c2ccc3cnc(N[C@H]4CCO[C@H](COC(C)=O)C4)nc3c2)c2cnn(C)c2)cc1F` [Compound I-57, Acetic acid (2S,4S)-4-(7-{[(S)-(3-fluoro-4-methoxy-phenyl)-(1-methyl-1H-pyrazol-4-yl)-methyl]-carbamoyl}-quinazolin-2-ylamino)-tetrahydro-pyran-2-ylmethyl ester], the IC50 stood at 24 nM.

As to `COCCNc1ncc2c(F)cc(C(=O)N[C@@H](c3ccc(OC)c(F)c3)c3cnn(C)c3)cc2n1` [Compound I-58, 5-Fluoro-2-(2-methoxy-ethylamino)-quinazoline-7-carboxylic acid [(S)-(3-fluoro-4-methoxy-phenyl)-(1-methyl-1H-pyrazol-4-yl)-methyl]-amide], the IC50 came out at 20 nM.

The compound `COc1ccc([C@H](NC(=O)c2cc(F)c3cnc(NCCCF)nc3c2)c2cnn(C)c2)cc1F` [Compound I-59, 5-Fluoro-2-(3-fluoro-propylamino)-quinazoline-7-carboxylic acid [(S)-(3-fluoro-4-methoxy-phenyl)-(1-methyl-1H-pyrazol-4-yl)-methyl]-amide] came in with an IC50 of 15 nM.

Compound `COc1ccc([C@H](NC(=O)c2cc(F)c3cnc(NCC4COC4)nc3c2)c2cnn(C)c2)cc1F` [Compound I-63, 5-Fluoro-2-[(oxetan-3-ylmethyl)-amino]-quinazoline-7-carboxylic acid [(S)-(3-fluoro-4-methoxy-phenyl)-(1-methyl-1H-pyrazol-4-yl)-methyl]-amide] came in with an IC50 of 4 nM.

For the compound `Cn1cc([C@@H](NC(=O)c2cc(F)c3cnc(NC4CCOCC4)nc3c2)c2ccc(C#N)c(Cl)c2)cn1` [Compound I-65, 5-Fluoro-2-(tetrahydro-pyran-4-ylamino)-quinazoline-7-carboxylic acid [(S)-(3-chloro-4-cyano-phenyl)-(1-methyl-1H-pyrazol-4-yl)-methyl]-amide], the IC50 came to 0.6 nM.

Take `COc1ccc([C@H](NC(=O)c2cc(F)c3cnc(NC4CCOCC4)nc3c2)c2cnn(C)c2)cc1Cl` [Compound I-66, 5-Fluoro-2-(tetrahydro-pyran-4-ylamino)-quinazoline-7-carboxylic acid [(S)-(3-chloro-4-methoxy-phenyl)-(1-methyl-1H-pyrazol-4-yl)-methyl]-amide]: the IC50 stood at 0.6 nM.

Turning to `Cn1cc([C@@H](NC(=O)c2cc(F)c3cnc(NC4CCOCC4)nc3c2)c2cccc(F)c2)cn1` [Compound I-68], half-maximal inhibition (IC50) required 1.3 nM.

Turning to `COc1ccc([C@H](NC(=O)c2cc(F)c3cnc(N[C@@H]4CCOC[C@@H]4F)nc3c2)c2cnn(C)c2)cc1F` [Compound I-70], the IC50 was determined as 4 nM.

Still in this assay, the particulars now being: TABLE II; 5nM ERK-2 enzyme, 25µM ATP, S/T17 peptide substrate; single assay or mean of multiple assays.
`COc1ccc([C@H](NC(=O)c2ccc3cnc(NC4CS(=O)(=O)C4)nc3c2)c2cnn(C)c2)cc1F` [II-3] showed an IC50 of 52.8 nM.

The compound `COc1ccc([C@@H](NC(=O)c2cc(F)c3cnc(NC4CCOCC4)nc3c2)c2cnn(C)c2)cc1F` [II-4] registered an IC50 of 15.7 nM.

Compound `COc1ccc([C@H](NC(=O)c2ccc3cnc(N[C@H]4C[C@@H](O)C4)nc3c2)c2cnn(C)c2)cc1F` [II-8] registered an IC50 of 4.2 nM.

In turn, `COc1ccc([C@H](NC(=O)c2ccc3cnc(N[C@H]4C[C@H](O)C4)nc3c2)c2cnn(C)c2)cc1F` [II-9] registered an IC50 of 3.8 nM.

Regarding `COc1ccc([C@H](NC(=O)c2ccc3cnc(NC4CC(OC)C4)nc3c2)c2cnn(C)c2)cc1F` (stereo partly shown) [II-10], the IC50 was 13.8 nM.

Turning to `COc1ccc([C@H](NC(=O)c2cc(F)c3cnc(NCCC#N)nc3c2)c2cnn(C)c2)cc1F` [II-11], the midpoint of inhibition, the IC50, lay at 13.9 nM.

Take `Cn1cc([C@@H](NC(=O)c2cc(F)c3cnc(NC4CCOCC4)nc3c2)c2cccc(F)c2)cn1` [II-12]: half-maximal inhibition (IC50) required 1.2 nM.

`COc1ccc([C@H](NC(=O)c2cc(F)c3cnc(NC4CCOCC4)nc3c2)c2cnn(C)c2)nc1` [II-14]: the IC50 turned out to be 153 nM.

As for `COc1ccc([C@H](NC(=O)c2cc(F)c3cnc(N[C@@H]4CCOC[C@@H]4F)nc3c2)c2cnn(C)c2)cc1F` [II-15], the IC50 was found to be 4.3 nM.

`COc1ccc([C@H](NC(=O)c2ccc3cnc(Nc4ccnn4C)nc3c2)c2cnn(C)c2)cc1F` [II-16] registered an IC50 of 2.1 nM.

Compound `COc1ccc([C@H](NC(=O)c2ccc3cnc(Nc4ccnc(C)c4)nc3c2)c2cnn(C)c2)cc1F` [II-17] returned an IC50 of 4.8 nM.

The compound `COc1ccc([C@H](NC(=O)c2cc(F)c3cnc(Nc4cn(C)nc4C)nc3c2)c2cnn(C)c2)cc1F` [II-19] came in with an IC50 of 6.8 nM.

Compound `COc1ccc([C@H](NC(=O)c2cc(F)c3cnc(N[C@@H](C)CO)nc3c2)c2cnn(C)c2)cc1F` [II-21] came in with an IC50 of 2.3 nM.

`COc1ccc([C@H](NC(=O)c2cc(F)c3cnc(NC4CCOCC4)nc3c2)c2cnn(C)c2)cc1` [II-22] showed an IC50 of 7 nM.

`COc1ccc([C@H](NC(=O)c2cc(F)c3cnc(Nc4ccnn4C)nc3c2)c2cnn(C)c2)cc1F` [II-23] yielded an IC50 of 10.8 nM.

`Cc1cc(Nc2ncc3ccc(C(=O)N[C@@H](c4ccc(Cl)c(F)c4)c4cnn(C)c4)cc3n2)n(C)n1` [II-24] showed an IC50 of 14.6 nM.

As for `C[C@@H](CO)Nc1ncc2c(F)cc(C(=O)N[C@@H](c3cccc(F)c3)c3cnn(C)c3)cc2n1` [II-26], half-maximal inhibition (IC50) required 5.6 nM.

`COc1ccc([C@H](NC(=O)c2ccc3cnc(Nc4cn(C)nc4C)nc3c2)c2cnn(C)c2)cc1F` [II-27] registered an IC50 of 960 nM.
